Several values for one entry are separate records, joined by “and”; a condition that tells them apart may be missing. Equal entries are not always repeated. Toxic doses and inconclusive results are not listed. How the source made its calls: active means survival T/C of 150% or more; inactive means T/C below 125% in these data.
Test system: P388 leukemia ip, CD2F1 mice, survival T/C
Assay: NCI In Vivo Anticancer Drug Screen. Data for tumor model P388 Leukemia (intraperitoneal) in CD2F1 (CDF1) mice
Conditions: endpoint: median survival time, higher = longer survival
Outline: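 Mice carrying the transplanted tumor received test compound or vehicle. Survival was recorded in each group, and the value is the treated-group measurement divided by that of the vehicle-treated control group.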

[1] = dose: 25.0 mg/kg/injection, schedule: Q01DX005 (ip), vehicle: water
[2] = dose: 50.0 mg/kg/injection, schedule: Q01DX005 (ip), vehicle: water
[3] = dose: 100.0 mg/kg/injection, schedule: Q01DX005 (ip), vehicle: water
[4] = dose: 50.0 mg/kg/injection, schedule: Q01DX009 (ip), vehicle: Klucel (hydroxypropylcellulose) (HPC)

Measured: T/C

COc1cc(NCc2ccc3nc(N)nc(N)c3c2C)cc(OC)c1OC (tested in a mixture with another compound)
active: dose: 2.6 mg/kg/injection, schedule: Q03HX024 (ip), vehicle: water 166 % of control | dose: 5.0 mg/kg/injection, schedule: Q03HX024 (ip), vehicle: water 182 % of control | dose: 5.2 mg/kg/injection, schedule: Q03HX024 (ip), vehicle: water 192 % of control | dose: 10.0 mg/kg/injection, schedule: Q03HX024 (ip), vehicle: water 201 % of control | dose: 10.4 mg/kg/injection, schedule: Q03HX024 (ip), vehicle: water 217 % of control | dose: 13.8 mg/kg/injection, schedule: Q01DX009 (ip), vehicle: water 175 % of control | dose: 13.8 mg/kg/injection, schedule: Q01DX009 (oral), vehicle: water 156 % of control | dose: 20.0 mg/kg/injection, schedule: Q03HX024 (ip), vehicle: water 230 % of control | dose: 20.8 mg/kg/injection, schedule: Q03HX024 (ip), vehicle: water 233 % of control | [1] 153 % of control and 154 % of control | dose: 27.7 mg/kg/injection, schedule: Q01DX009 (ip), vehicle: water 185 % of control | dose: 27.7 mg/kg/injection, schedule: Q01DX009 (oral), vehicle: water 163 % of control | dose: 40.0 mg/kg/injection, schedule: Q03HX024 (ip), vehicle: water 223 % of control | [2] 150 % of control and 160 % of control | dose: 50.0 mg/kg/injection, schedule: Q01DX005 (iv), vehicle: water 166 % of control | dose: 55.5 mg/kg/injection, schedule: Q01DX009 (ip), vehicle: water 208 % of control | dose: 55.5 mg/kg/injection, schedule: Q01DX009 (oral), vehicle: water 211 % of control | dose: 75.0 mg/kg/injection, schedule: Q03HX008 (sc), vehicle: water 163 % of control | [3] 155 % of control and 173 % of control | dose: 100.0 mg/kg/injection, schedule: Q01DX005 (sc), vehicle: water 163 % of control | dose: 50.0 micrograms per hour, schedule: Q#X X072 (sc), vehicle: water 163 % of control | dose: 200.0 micrograms per hour, schedule: Q#X X072 (sc), vehicle: water 181 % of control
inactive: dose: 6.25 mg/kg/injection, schedule: Q03HX008 (sc), vehicle: water 114 % of control | dose: 6.9 mg/kg/injection, schedule: Q01DX009 (oral), vehicle: water 119 % of control | dose: 12.5 mg/kg/injection, schedule: Q03HX008 (sc), vehicle: water 118 % of control | dose: 25.0 mg/kg/injection, schedule: Q01DX005 (sc), vehicle: water 118 % of control | dose: 25.0 mg/kg/injection, schedule: Q03HX008 (sc), vehicle: water 123 % of control | dose: 41.6 mg/kg/injection, schedule: Q03HX024 (ip), vehicle: water 103 % of control | dose: 62.5 mg/kg/injection, schedule: Q01DX001 (ip), vehicle: water 109 % of control | dose: 62.5 mg/kg/injection, schedule: Q01DX001 (iv), vehicle: water 117 % of control | dose: 111.1 mg/kg/injection, schedule: Q01DX009 (oral), vehicle: water 98 % of control | dose: 125.0 mg/kg/injection, schedule: Q01DX001 (ip), vehicle: water 115 % of control | dose: 200.0 mg/kg/injection, schedule: Q01DX005 (sc), vehicle: water 95 % of control | dose: 50.0 micrograms per hour, schedule: Q#X X024 (sc), vehicle: water 120 % of control | dose: 50.0 micrograms per hour, schedule: Q#X X048 (sc), vehicle: water 123 % of control | dose: 70.0 micrograms per hour, schedule: Q#X X006 (iv), vehicle: water 112 % of control | dose: 85.0 micrograms per hour, schedule: Q#X X006 (iv), vehicle: water 121 % of control | dose: 100.0 micrograms per hour, schedule: Q#X X024 (sc), vehicle: water 118 % of control | dose: 100.0 micrograms per hour, schedule: Q#X X120 (sc), vehicle: water 112 % of control | dose: 200.0 micrograms per hour, schedule: Q#X X120 (sc), vehicle: water 94 % of control

O=c1c2ccccc2c(=O)c2c1ccc1[nH]c3ccccc3n(-c3ccccc3)c12
inactive: dose: 50.0 mg/kg/injection, schedule: Q01DX005 (ip), vehicle: Klucel (hydroxypropylcellulose) (HPC) 101 % of control | dose: 100.0 mg/kg/injection, schedule: Q01DX005 (ip), vehicle: Klucel (hydroxypropylcellulose) (HPC) 100 % of control | dose: 200.0 mg/kg/injection, schedule: Q01DX005 (ip), vehicle: Klucel (hydroxypropylcellulose) (HPC) 100 % of control

O=C1C2(Cl)C(Cl)=C(Cl)C1(Cl)C1(Cl)C(Cl)=C(Cl)C(=O)C21Cl (stereo unspecified)
inactive: dose: 10.0 mg/kg/injection, schedule: Q01DX009 (ip), vehicle: saline with Tween-80 104 % of control | dose: 20.0 mg/kg/injection, schedule: Q01DX009 (ip), vehicle: saline with Tween-80 104 % of control | dose: 40.0 mg/kg/injection, schedule: Q01DX009 (ip), vehicle: saline with Tween-80 100 % of control

[Co].[N-]=C=S.[N-]=C=S.[N-]=C=S.[NH2-].[NH2-].[NH2-]
inactive: dose: 50.0 mg/kg/injection, schedule: Q01DX001 (ip), vehicle: saline with Tween-80 101 % of control | dose: 50.0 mg/kg/injection, schedule: Q01DX005 (ip), vehicle: saline 96 % of control | dose: 100.0 mg/kg/injection, schedule: Q01DX001 (ip), vehicle: saline with Tween-80 99 % of control and 94 % of control | dose: 100.0 mg/kg/injection, schedule: Q01DX005 (ip), vehicle: saline 113 % of control | dose: 200.0 mg/kg/injection, schedule: Q01DX001 (ip), vehicle: saline with Tween-80 98 % of control and 106 % of control | dose: 400.0 mg/kg/injection, schedule: Q01DX001 (ip), vehicle: saline with Tween-80 98 % of control

Cc1cc2nncn2c2nnnn12
inactive: dose: 6.25 mg/kg/injection, schedule: Q01DX005 (ip), vehicle: water 101 % of control | dose: 12.5 mg/kg/injection, schedule: Q01DX005 (ip), vehicle: water 102 % of control | [1] 108 % of control | [2] 108 % of control | [3] 105 % of control | dose: 200.0 mg/kg/injection, schedule: Q01DX005 (ip), vehicle: water 101 % of control

CC(=O)C1CC[C@@]2(C)C(CC[C@H]3[C@@H]4CCC[C@H]([C@H](C)O)[C@@]4(C)CC[C@@H]32)C1 (stereo partly specified)
inactive: dose: 12.5 mg/kg/injection, schedule: Q01DX009 (ip), vehicle: Klucel (hydroxypropylcellulose) (HPC) 91 % of control | dose: 25.0 mg/kg/injection, schedule: Q01DX009 (ip), vehicle: Klucel (hydroxypropylcellulose) (HPC) 91 % of control | [4] 88 % of control

Clc1ncn[nH]1
inactive: dose: 100.0 mg/kg/injection, schedule: Q01DX001 (ip), vehicle: Klucel (hydroxypropylcellulose) (HPC) 99 % of control | dose: 200.0 mg/kg/injection, schedule: Q01DX001 (ip), vehicle: Klucel (hydroxypropylcellulose) (HPC) 106 % of control | dose: 400.0 mg/kg/injection, schedule: Q01DX001 (ip), vehicle: Klucel (hydroxypropylcellulose) (HPC) 122 % of control

COC(=O)c1cc(Cl)ccc1OCC(O)CNc1ccc(Cl)cc1C(=O)c1ccccc1 (stereo unspecified)
inactive: dose: 60.0 mg/kg/injection, schedule: Q01DX005 (ip), vehicle: saline with Tween-80 92 % of control | dose: 120.0 mg/kg/injection, schedule: Q01DX005 (ip), vehicle: saline with Tween-80 100 % of control | dose: 240.0 mg/kg/injection, schedule: Q01DX005 (ip), vehicle: saline with Tween-80 90 % of control

CCCCCCOC(=O)c1ccc(Br)cc1
inactive: [4] 104 % of control | dose: 100.0 mg/kg/injection, schedule: Q01DX009 (ip), vehicle: Klucel (hydroxypropylcellulose) (HPC) 101 % of control | dose: 200.0 mg/kg/injection, schedule: Q01DX009 (ip), vehicle: Klucel (hydroxypropylcellulose) (HPC) 93 % of control

C1CN(/N=N/N2CCC2)C1
inactive: dose: 6.25 mg/kg/injection, schedule: Q01DX005 (ip), vehicle: Klucel (hydroxypropylcellulose) (HPC) 98 % of control | dose: 12.5 mg/kg/injection, schedule: Q01DX005 (ip), vehicle: Klucel (hydroxypropylcellulose) (HPC) 100 % of control | dose: 25.0 mg/kg/injection, schedule: Q01DX005 (ip), vehicle: Klucel (hydroxypropylcellulose) (HPC) 102 % of control

CC1(C)N=C(N)N=C(N)N1c1cccc(CCC(=O)Nc2ccc(S(=O)(=O)F)cc2)c1
inactive: dose: 18.8 mg/kg/injection, schedule: Q01DX009 (ip), vehicle: saline with Tween-80 116 % of control and 118 % of control | dose: 37.5 mg/kg/injection, schedule: Q01DX009 (ip), vehicle: saline with Tween-80 115 % of control and 118 % of control | dose: 150.0 mg/kg/injection, schedule: Q01DX009 (ip), vehicle: saline with Tween-80 107 % of control
